Laboratory results from patent US12680128B2.

Key:
plasmid DNA CpG sites = type: cell-based, E. coli
pUC19 plasmid DNA = test: pUC19 assay (in vitro transfer of SAM or CxSAM, HpaII/HhaI challenge)
[1] = system: unmethylated phage gDNA CpG sites; test: Amplicon sequencing of phage gDNA treated with M.MpeI N374K and SAM or CxSAM, then bisulfite or A3A
[2] = system: pMG81-M.MpeI plasmid CCGG sites; conditions: in vivo, plasmid recovered after induced expression
APOBEC3A (A3A) = APOBEC3A (A3A) (Homo sapiens, UniProt P31941); test: A3A deamination of ssDNA with homogeneously 5-modified cytosines (TA cloning assay); type: biochemical; conditions: 8 μM A3A, 37° C., two hours
Procedure: Single stranded DNA with homogenously modified cytosines was obtained by LATE-PCR as previously described (Schutsky et al. Nucleic Acids Res 2017). Modified triphosphates were obtained from TriLink unless otherwise noted here (mC: NEB, peC/pC: synthesized in house, purified by ion-pair chromatography, Ghanty et al. JACS 2018). 1 ng of purified single stranded DNA was incubated with 8 μM A3A at 37° C. for two hours. This 202 base pair amplicon was PCR amplified and TA cloned. Single clones were sent for Sanger Sequencing. After alignment to the parent 202mer substrate (Table 1), C to T conversions were quantified as a percentage of total Cs.
To determine more exact parameters that define the discrimination as a function of sterics at the C5 position, we synthesized or obtained dxCTP analogs, with variable (x) 5-position substituents, and used established approaches to generate long ssDNA substrates with homogeneous C modifications (36). These substrates were reacted with A3A, reamplified and analyzed for deamination by restriction digestion at a specific site.

[3] = system: E. coli genomic DNA CCWGG sites; test: Nucleoside LC-MS/MS of genomic DNA after in vivo expression of Dcm variants; conditions: dam-/dcm- E. coli, gDNA

Sequence of APOBEC3A (A3A) (P31941 whole entry): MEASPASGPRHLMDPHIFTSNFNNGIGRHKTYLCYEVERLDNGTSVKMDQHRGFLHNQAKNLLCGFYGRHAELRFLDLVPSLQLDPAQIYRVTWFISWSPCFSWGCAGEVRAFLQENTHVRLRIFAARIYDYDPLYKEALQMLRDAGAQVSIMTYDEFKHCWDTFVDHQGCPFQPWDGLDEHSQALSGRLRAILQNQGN

In the case of “M.MpeI N374K: CpG M.MpeI Carboxymethyltransferase with a C-terminal His Tag, SEQ ID NO: 1 (lacks His tag) / SEQ ID NO: 2”, the “change of 5cxmC signal in the added presence of the CmoA plasmid” value (plasmid DNA CpG sites) is reported as “an increase in 5cxmC signal”, the “in vivo plasmid carboxymethylation (5cxmC) by LC-MS/MS” value (plasmid DNA CpG sites) is reported as “can be detected and lost” and the “level of 5cxmC modification across overexpression conditions” value (plasmid DNA CpG sites) is reported as “greatest level of 5cxmC modification”. The “protection of pUC19 plasmid from restriction digestion” value (pUC19 plasmid DNA; CxSAM substrate) was “newly gains the ability to transfer CxSAM”, the “protection of pUC19 plasmid from restriction digestion” value (pUC19 plasmid DNA; SAM substrate) was “transfers SAM less efficiently than the WT enzyme” and the “DNA newly resistant to A3A deamination” value ([1]; CxSAM, A3A deamination) was ~ 50%. The “DNA modified as 5cxmC (cytosine calls at CpGs after bisulfite)” value ([1]; CxSAM, bisulfite deamination) was ~ 50%, the “DNA newly modified to be 5mC (cytosine calls at CpGs after bisulfite)” value ([1]; SAM, bisulfite deamination) was ~ 60% and the “HpaII and MspI digestion pattern of encoding plasmid” value [2] was “faint ~2 kB band resistant to MspI digestion”.

In the case of 5-propynyl-dC [5pyC], the “deamination by A3A of ssDNA with all Cs replaced by the modified base” value (APOBEC3A (A3A)) is reported as “undetectable levels of deamination”.

B1: Dcm N436K: CCWGG Dcm Carboxymethyltransferase with a C-terminal His Tag, SEQ ID NO: 3 / SEQ ID NO: 4 (protein)
chain: MQENISVTDSYSTGNAAQAMLEKLLQIYDVKTLVAQLNGVGENHWSAAILKRALANDSAWHRLSEKEFAHLQTLLPKPPAHHPHYAFRFIDLFAGIGGIRRGFESIGGQCVFTSEWNKHAVRTYKANHYCDPATHHFNEDIRDITLSHKEGVSDEAAAEHIRQHIPEHDVLLAGFPCQPFSLAGVSKKNSLGRAHGFACDTQGTLFFDVVRIIDARRPAMFVLENVKNLKSHDQGKTFRIIMQTLDELGYDVADAEDNGPDDPKIIDGKHFLPQHRERIVLVGFRRDLNLKADFTLRDISECFPAQRVTLAQLLDPMVEAKYILTPVLWKYLYRYAKKHQARGNGFGYGMVYPNNPQSVTRTLSARYYKDGAEILIDRGWDMATGEKDFDDPLNQQHRPRRLTPRECARLMGFEAPGEAKFRIPVSDTQAYRQFGKSVVVPVFAAVAKLLEPKIKQAVALRQQEAQHGRRSRHHHHHH
modifications: C-terminal His tag; Dcm N436K with His tag
For B1, the “CCWGG sites carboxymethylated (5cxmC relative to total CCWGGs)” value [3] was > 1.5%, the “formation of 5cxmC in the native E. coli genome” value [3] was “could catalyze the formation of 5cxmC” and the “methylation of cytosine (detection of 5mC)” value [3] was “could methylate cytosine”.

B2: WT Dcm: E. coli's naturally occurring DNA Cytosine Methyltransferase (Dcm) (protein, UniProt P0AED9 1-472, looked up)
DNA-cytosine methyltransferase: MQENISVTDSYSTGNAAQAMLEKLLQIYDVKTLVAQLNGVGENHWSAAILKRALANDSAWHRLSEKEFAHLQTLLPKPPAHHPHYAFRFIDLFAGIGGIRRGFESIGGQCVFTSEWNKHAVRTYKANHYCDPATHHFNEDIRDITLSHKEGVSDEAAAEHIRQHIPEHDVLLAGFPCQPFSLAGVSKKNSLGRAHGFACDTQGTLFFDVVRIIDARRPAMFVLENVKNLKSHDQGKTFRIIMQTLDELGYDVADAEDNGPDDPKIIDGKHFLPQHRERIVLVGFRRDLNLKADFTLRDISECFPAQRVTLAQLLDPMVEAKYILTPVLWKYLYRYAKKHQARGNGFGYGMVYPNNPQSVTRTLSARYYKDGAEILIDRGWDMATGEKDFDDPLNQQHRPRRLTPRECARLMGFEAPGEAKFRIPVSDTQAYRQFGNSVVVPVFAAVAKLLEPKIKQAVALRQQEAQHGRRSR
For B2, the “formation of 5cxmC in the native E. coli genome” value [3] was “not” and the “methylation of cytosine (detection of 5mC)” value [3] was “could methylate cytosine”.
